We go through ten molecules from US11332756B2, “RNA virus vectors carrying DAI and RIPK3” (Institute For Cancer Research, priority 2016, dated 2022).

The target in experiment [1] is T1, RIPK3-RIPK1 necrosome (Mus musculus, UniProt Q9QZL0).
T1 construct: RIPK3 was immunoprecipitated from lysates of PR8-infected MEFs; endogenous in cells; host or cells: wild-type mouse embryo fibroblasts (MEFs)
The experiment is described as follows: IAV-induced RIPK3-RIPK1 necrosome formation (RIPK3 immunoprecipitation) in MEFs. The conditions noted are these: for IAV (PR8)-induced RIPK3-RIPK1 necrosome / complex formation: PR8-infected MEFs, cells pre-treated with agent, RIPK3 immunoprecipitation. The experiment is classed as cell-based, murine. The source says: (§1) IAV replication results in assembly of a RIPK3 complex containing RIPK1, FADD and MLKL. A molecular feature of RIPK3 dependent cell death is the stimulus-driven formation of a molecular complex called the necrosome, comprising as its core phosphorylated forms of RIPK3 and RIPK1, together with FADD and MLKL. From the necrosome, RIPK3 can activate both necroptosis and apoptosis, depending on target availability or RIPK3 activity. To test if IAV induced formation of a necrosome, RIPK3 was immunoprecipitated from lysates of PR8-infected MEFs, and immunoprecipitates were examined for the presence of slower-mobility forms of phosphorylated RIPK1. PR8 activated necrosome formation to a significant extent, as did the combination of PR8+zVAD (see, FIG. 4A, left and middle panels). Like TNF-α (see, FIG. 4A, right panels), IAV infection also drove the recruitment of FADD and MLKL into the RIPK3-RIPK1 necrosome.

The target of experiment [2] is T1, RIPK3-RIPK1 necrosome. The experiment is described as follows: TNF-α-induced necrosome assembly in MEFs. The experiment is classed as cell-based, murine. Particulars: same doses as in PR8 experiment; not shown.
Description: as §1

For the next experiment, the system named is IAV (PR8). The experiment is classed as cell-based, Influenza A virus.
Experiment [3] has as its system wild-type MEFs infected with PR8. The experiment is classed as cell-based, murine.
Experiment [4] deals with TCZ-treated wild-type MEFs. It counts as cell-based, murine.
In experiment [5] the test system is ripk1−/− MEFs infected with PR8. The experiment is classed as cell-based, murine.
Experiment [6] has as its system mlkl−/− MEFs infected with PR8. The experiment is classed as cell-based, murine.
The test system of experiment [7] is ripk3−/− MEFs infected with PR8. It counts as cell-based, murine.
Experiment [8] deals with apoptosis activated by TRAIL and cycloheximide in MEFs. The experiment is described as follows: Apoptosis induced by TRAIL and cycloheximide. It counts as cell-based, murine. The conditions noted are these: TRAIL 2 μg/ml + CHX 250 ng/ml; anti-TRAIL-R2 10 μg/ml; zVAD same dose as in PR8 test.
The test system of experiment [9] is MLKL phosphorylation and cleavage of caspase 8. The experiment is described as follows: Immunoblot of phosphorylated MLKL and cleaved caspase 8 in PR8-infected MEFs. The conditions noted are these: wild-type MEFs, zVAD 50 μM. It counts as cell-based, murine. Background: In western blotting, separated proteins are transferred to a membrane and probed.

*1 amine or outer side, *2 acyl side, *3 side chain or, on linkers, in order; H or OH if unused. Where a SMILES comes first, the peptide text is derived from it. Bridges are numbered along the chain shown (N, C = ends). Roman numbers before positions name the chains, in order. [ ]: non-standard residue; d: D form. The star is where a group is joined. Actinocin(9to1) = Cc1c2oc3c(C)ccc(C(=O)[*:1])c3nc-2c(C(=O)[*:2])c(N)c1=O; NMeV = CN[C@H](C(=O)O)C(C)C; Cbz = O=C(OCc1ccccc1)*; Sar = CNCC(=O)O; CH2F = FC*

T1 sequence (Q9QZL0 whole entry): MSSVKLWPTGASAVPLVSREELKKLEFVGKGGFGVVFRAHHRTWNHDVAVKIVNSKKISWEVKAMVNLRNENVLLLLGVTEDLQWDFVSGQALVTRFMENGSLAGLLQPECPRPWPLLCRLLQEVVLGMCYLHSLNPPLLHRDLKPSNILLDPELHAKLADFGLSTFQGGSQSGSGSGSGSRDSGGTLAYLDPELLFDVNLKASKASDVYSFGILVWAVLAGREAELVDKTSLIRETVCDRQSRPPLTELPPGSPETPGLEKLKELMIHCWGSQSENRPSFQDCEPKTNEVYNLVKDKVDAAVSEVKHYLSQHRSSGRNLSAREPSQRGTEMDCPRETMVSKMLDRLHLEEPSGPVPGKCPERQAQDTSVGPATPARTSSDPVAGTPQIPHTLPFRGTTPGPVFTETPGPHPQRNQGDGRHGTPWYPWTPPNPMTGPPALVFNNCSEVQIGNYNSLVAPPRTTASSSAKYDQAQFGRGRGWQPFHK

In the case of `Cc1c2oc3c(C)ccc(C(=O)N[C@@H]4C(=O)N[C@H](C(C)C)C(=O)N5CCC[C@H]5C(=O)N(C)CC(=O)N(C)[C@@H](C(C)C)C(=O)O[C@@H]4C)c3nc-2c(C(=O)N[C@@H]2C(=O)N[C@H](C(C)C)C(=O)N3CCC[C@H]3C(=O)N(C)CC(=O)N(C)[C@@H](C(C)C)C(=O)O[C@@H]2C)c(N)c1=O` [ActD, Actinomycin D] (I: T[dV]P[Sar][NMeV] / II: T[dV]P[Sar][NMeV]; ester I:1-I:C, II:1-II:C; linker I:N-II:N via Actinocin(9to1)), at RIPK3-RIPK1 necrosome [1], the “IAV (PR8)-induced RIPK3-RIPK1 necrosome / complex formation” value was “effectively prevented”. The “effect on TNF-α-induced necrosome assembly” value at RIPK3-RIPK1 necrosome [2] was “Neither ActD nor CHX at these doses affected”. In addition, the viral replication result with IAV (PR8) is “effectively prevented”.

As to `C[C@@H]1C[C@@H]([C@H](O)CC2CC(=O)NC(=O)C2)C(=O)[C@@H](C)C1` [CHX, cycloheximide], the “IAV (PR8)-induced RIPK3-RIPK1 necrosome / complex formation” value on RIPK3-RIPK1 necrosome [1] was “effectively prevented”. Further, the “effect on TNF-α-induced necrosome assembly” value on RIPK3-RIPK1 necrosome [2] is reported as “Neither ActD nor CHX at these doses affected”. For the same molecule, the viral replication result with IAV (PR8) is recorded as “effectively prevented”.

Consider `CN1C(=O)[C@@H](NC(=O)c2cc(Cc3ccccc3)on2)COc2ccccc21` [GSK'481], for which the “protection of viability after PR8 infection, inhibitor alone” value (shortened to “protection of viability … inhibitor alone”) in experiment [3] is given as “did not have any discernible protective effect”. In addition, at RIPK3-RIPK1 necrosome [1], the “IAV (PR8)-induced RIPK3-RIPK1 necrosome / complex formation” value is “inability of these agents to prevent IAV-driven necrosome formation”.

For `Cc1cc(-c2cnc(N)c3c(-c4ccc5scnc5c4)csc23)n(C)n1` [GSK'843], the “protection of viability … inhibitor alone” value in experiment [3] is given as “failed to prevent PR8-induced cell death”. Also, the “IAV (PR8)-induced RIPK3-RIPK1 necrosome / complex formation” value at RIPK3-RIPK1 necrosome [1] is on record as “blocked PR8-induced necrosome assembly”. Besides, in [4], the “protection against TNF-α-induced necroptosis / cell death” value is “fully protective”. In experiment [5], the “protection from PR8-induced cell death in ripk1−/− MEFs” value is on record as “almost-fully protected”.

Turning to `CC(C)S(=O)(=O)c1ccc2nccc(Nc3ccc4scnc4c3)c2c1` [GSK'872], in [3], the “protection of viability … inhibitor alone” value is given as “failed to prevent PR8-induced cell death”. On RIPK3-RIPK1 necrosome [1], the “IAV (PR8)-induced RIPK3-RIPK1 necrosome / complex formation” value is recorded as “blocked PR8-induced necrosome assembly”. Moreover, in experiment [4], the “protection against TNF-α-induced necroptosis / cell death” value was “fully protective”. In experiment [5], the “protection from PR8-induced cell death in ripk1−/− MEFs” value is “almost-fully protected”.

For the molecule `CC(C)(C)C(=O)N1N=CC[C@H]1c1ccccc1` [GSK'963], the “protection of viability … inhibitor alone” value in experiment [3] was “did not have any discernible protective effect”. In addition, at RIPK3-RIPK1 necrosome [1], the “IAV (PR8)-induced RIPK3-RIPK1 necrosome / complex formation” value was “inability of these agents to prevent IAV-driven necrosome formation”.

Turning to `CN1C(=O)C(Cc2c[nH]c3ccccc23)NC1=S` (stereo not drawn) [Nec-1, Necrostatin 1], the “protection of viability … inhibitor alone” value in experiment [3] is reported as “did not have any discernible protective effect”. For the same molecule, the “IAV (PR8)-induced RIPK3-RIPK1 necrosome / complex formation” value on RIPK3-RIPK1 necrosome [1] is “inability of these agents to prevent IAV-driven necrosome formation”.

As for `Cc1onc(-c2ccccc2)c1C(=O)N1CCN(c2ccc([N+](=O)[O-])cc2Cl)CC1` [nucleozin], the “IAV (PR8)-induced RIPK3-RIPK1 necrosome / complex formation” value at RIPK3-RIPK1 necrosome [1] is on record as “potently blocked”. Moreover, the viral replication result in the experiment on IAV (PR8) is recorded as “abrogated viral replication”.

On to `CC[C@H](C)[C@H](NC(=O)OCc1ccccc1)C(=O)N[C@@H](CCC(=O)OC)C(=O)N[C@H](C(=O)N[C@@H](CC(=O)OC)C(=O)CF)[C@@H](C)O` [zIETD, zIETD.fmk] (Cbz-IE(OMe)TD(OMe)-CH2F), for which, in experiment [6], the “protection against PR8 compared with zVAD” value is listed as “less protection against PR8 than zVAD” and the “rescue from PR8-induced cell death in mlkl−/− MEFs” value is on record as “significant protection”.

Turning to `COC(=O)C[C@H](NC(=O)[C@H](C)NC(=O)[C@@H](NC(=O)OCc1ccccc1)C(C)C)C(=O)CF` [zVAD, zVAD.fmk] (Cbz-Val-Ala-Asp(OMe)-CH2F), the “protection of viability … inhibitor alone” value in experiment [3] is recorded as “did not protect”. Moreover, at RIPK3-RIPK1 necrosome [1] (zVAD alone, 25 μM, no virus), the “necrosome formation induced by the agent alone” value is “did not induce detectable necrosome formation”. Further, in [6], the “rescue from PR8-induced cell death in mlkl−/− MEFs” value is listed as “fully rescued”. Moreover, in experiment [7], the “viability of PR8-infected ripk3−/− MEFs” value is on record as “remained mostly alive”. In addition, in experiment [8], the “protection against apoptosis induced by TRAIL and cycloheximide” value is recorded as “prevented apoptosis”. Also, the “IAV-induced cleavage of caspase 8” value in [9] is “inhibited”.
